The target of the test is ROCK2 (Homo sapiens (Human), UniProt O75116). The test is described as follows: ROCK2 kinase IC50 assay (CISBIO HTRF KinEASE-STK S2 kit). Type of test: biochemical. The conditions noted are these: ROCK2 from Carna Biosciences, 2 h incubation at room temperature. As for the experimental part: The kinase IC50 was determined by a commercialized CISBIO kinase detection kit, HTRF KinEASE-STK S2 kit (62ST2PEC). ROCK2 (01-119) employed in the reaction was purchased from Carna Biosciences.
Chain of ROCK2 (O75116 1-553): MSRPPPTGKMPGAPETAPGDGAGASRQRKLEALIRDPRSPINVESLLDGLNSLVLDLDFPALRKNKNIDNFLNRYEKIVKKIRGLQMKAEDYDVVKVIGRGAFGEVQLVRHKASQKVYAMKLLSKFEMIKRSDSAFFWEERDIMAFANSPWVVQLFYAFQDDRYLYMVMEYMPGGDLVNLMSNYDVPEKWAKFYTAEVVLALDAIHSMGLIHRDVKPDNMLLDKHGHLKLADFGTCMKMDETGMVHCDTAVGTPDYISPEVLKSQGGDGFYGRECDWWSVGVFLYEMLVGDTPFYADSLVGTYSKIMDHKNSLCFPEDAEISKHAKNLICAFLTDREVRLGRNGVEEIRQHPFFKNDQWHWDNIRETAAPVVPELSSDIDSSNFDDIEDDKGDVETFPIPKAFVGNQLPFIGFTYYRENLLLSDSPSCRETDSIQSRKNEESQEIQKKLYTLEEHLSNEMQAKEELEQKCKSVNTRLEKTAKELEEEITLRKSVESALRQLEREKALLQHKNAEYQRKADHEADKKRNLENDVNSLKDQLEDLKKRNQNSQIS
Before the assay, the following working solutions as needed were formulated with corresponding reagents according to the instruction of the kinase detection kit: 1×kinase buffer, 5×STK-52 substrate working solution (1.5 μM) and 5×ATP working solution (1.5 μM), 5×ROCK2 kinase working solution, 4×Streptavidin-XL665 working solution, and 4×STK-Ab-Cryptate 2 detection solution. Then the assay was performed according to the following procedure.
A solution of a compound at a concentration of 10000 nM was prepared with the 1×kinase buffer containing 2.5% DMSO. Gradient dilution of the solution of the compound was performed with the kinase buffer containing DMSO, so as to obtain solutions of a test compound at 9 different concentrations. In addition to wells of test compounds, a positive well (containing all the reagents except the compound) and a negative well (containing all the reagents except the test compound and kinase) were set. Except for the control wells (positive and negative wells), a solution of a test compound (4 μL) was added to each of the reaction wells, and a solution of 2.5% DMSO was added to the control wells. Then the substrate (2 μM, i.e., 2 μL 5×STK-S2 substrate working solution) was added to each of the reaction wells. The 5×ROCK2 kinase working solution (2 μL, containing 1.4 ng ROCK2 kinase) was added to each of the reaction wells except for the negative well, the volume of which was made up with the 1×kinase buffer (2 μL). The 5×ATP working solution (2 μL) was added to each of the reaction wells, and the mixtures were incubated at room temperature for 2 hours. After the kinase reaction was complete, the 4×Streptavidin-XL665 working solution was added to each of the reaction wells, the solutions were mixed, followed by immediate addition of the 4×STK-Ab-Cryptate 2 detection solution (5 μL), and the mixtures were incubated at room temperature for 1 hour. The fluorescence signal was read on ENVISION (Perkinelmer) (excitation wavelength: 320 nm, and emission wavelength: 665 nm and 615 nm). The inhibitory rate in each well was calculated based on the fluorescence intensity value: ER (Emission Ratio)=(fluorescence intensity at 665 nm/fluorescence intensity at 615 nm); inhibitory rate=(ERpositive−ERtest compound) (ERpositive−ERnegative)*100%. Curves were plotted and fitted to obtain the median inhibitory concentration (IC50) of each teat compound with the PRISM 5.0 software.

With `O=C(Nc1cccnc1)c1cc2ccc(-c3nccc(Nc4ccc5[nH]ncc5c4)n3)cc2[nH]1` [TDI01171, 6-(4-((1H-indazol-5-yl)amino)pyrimidin-2-yl)-N-(pyridin-3-yl)-1H-indole-2-carboxamide], the IC50 is 63 nM. In other words, the double-digit nanomolar range. Under `CC(CO)NC(=O)c1cc2ccc(-c3nccc(Nc4ccc5[nH]ncc5c4)n3)cc2[nH]1` (centres unmarked) [TDI01176, 6-(4-((1H-indazol-5-yl)amino)pyrimidin-2-yl)-N-(1-hydroxypropan-2-yl)-1H-indole-2-carboxamide] stands 28 nM; under `O=C(Nc1ccc2[nH]ncc2c1)c1cc2ccc(-c3nccc(Nc4ccc5[nH]ncc5c4)n3)cc2[nH]1` [TDI01182, 6-(4-((1H-indazol-5-yl)amino)pyrimidin-2-yl)-N-(1H-indazol-5-yl)-1H-indole-2-carboxamide], 46 nM. Consider `O=C(Nc1cn[nH]c1)c1cc2ccc(-c3nccc(Nc4ccc5[nH]ncc5c4)n3)cc2[nH]1` [TDI01199, 6-(4-((1H-indazol-5-yl)amino)pyrimidin-2-yl)-N-(1H-pyrazol-4-yl)-1H-indole-2-carboxamide], for which the IC50 is 30 nM. Under `CC(C)(C)OC(=O)n1cc(NC(=O)c2cc3ccc(-c4nccc(Nc5ccc6[nH]ncc6c5)n4)cc3[nH]2)cn1` [TDI01200, tert-butyl 4-(6-(4-((1H-indazol-5-yl)amino)pyrimidin-2-yl)-1H-indole-2-carboxamido)-1H-pyrazole-1-carboxylate] stands 23 nM; under `O=C(Nc1ccccc1)c1cc2ccc(-c3nccc(Nc4ccc5[nH]ncc5c4)n3)cc2[nH]1` [TDI01215, 6-(4-((1H-indazol-5-yl)amino)pyrimidin-2-yl)-N-phenyl-1H-indole-2-carboxamide], 382 nM. Regarding `CN(C)c1ccc(NC(=O)c2cc3ccc(-c4nccc(Nc5ccc6[nH]ncc6c5)n4)cc3[nH]2)cn1` [TDI01221, 6-(4-((1H-indazol-5-yl)amino)pyrimidin-2-yl)-N-(6-(dimethylamino)pyridin-3-yl)-1H-indole-2-carboxamide], the IC50 was found to be 91 nM. The figure for `CN1CCN(CC(=O)n2ccc3ccc(-c4nccc(Nc5ccc6[nH]ncc6c5)n4)cc32)CC1` [TDI01230, 1-(6-(4-((1H-indazol-5-yl)amino)pyrimidin-2-yl)-1H-indol-1-yl)-2-(4-methylpiperazin-1-yl)ethan-1-one] is 109 nM; for `O=C(Nc1nncs1)c1cc2ccc(-c3nccc(Nc4ccc5[nH]ncc5c4)n3)cc2[nH]1` [TDI01247, 6-(4-((1H-indazol-5-yl)amino)pyrimidin-2-yl)-N-(1,3,4-thiadiazol-2-yl)-1H-indole-2-carboxamide] it is 134 nM. The figure for `O=C(Nc1cnc2[nH]ccc2c1)c1cc2ccc(-c3nccc(Nc4ccc5[nH]ncc5c4)n3)cc2[nH]1` [TDI01258, 6-(4-((1H-indazol-5-yl)amino)pyrimidin-2-yl)-N-(1H-pyrrolo[2,3-b]pyridin-5-yl)-1H-indole-2-carboxamide] is 62 nM; for `CC(C)NC(=O)c1cc2ccc(-c3nccc(Nc4ccc(-c5cn[nH]c5)cc4)n3)cc2[nH]1` [TDI01280, 6-(4-((4-(1H-pyrazol-4-yl)phenyl)amino)pyrimidin-2-yl)-N-isopropyl-1H-indole-2-carboxamide] it is 94 nM. Under `CC(C)NC(=O)c1c[nH]c2ccc(-c3nccc(Nc4ccc5[nH]ncc5c4)n3)cc12` [TDI01285, 5-(4-((1H-indazol-5-yl)amino)pyrimidin-2-yl)-N-isopropyl-1H-indole-3-carboxamide] stands 116 nM; under `CN(C)c1cnccc1NC(=O)c1cc2ccc(-c3nccc(Nc4ccc5[nH]ncc5c4)n3)cc2[nH]1` [TDI01289, 6-(4-((1H-indazol-5-yl)amino)pyrimidin-2-yl)-N-(3-(dimethylamino)pyridin-4-yl)-1H-indole-2-carboxamide], 72 nM. `O=C(Nc1ccncc1Cl)c1cc2ccc(-c3nccc(Nc4ccc5[nH]ncc5c4)n3)cc2[nH]1` [TDI01290, 6-(4-((1H-indazol-5-yl)amino)pyrimidin-2-yl)-N-(3-chloropyridin-4-yl)-1H-indole-2-carboxamide] returned an IC50 of 46 nM.

Turning to `O=C(NC1CCOCC1)c1cc2ccc(-c3nccc(Nc4ccc5[nH]ncc5c4)n3)cc2[nH]1` [TDI01291, 6-(4-((1H-indazol-5-yl)amino)pyrimidin-2-yl)-N-(tetrahydro-2H-pyran-4-yl)-1H-indole-2-carboxamide], half-maximal inhibition (IC50) required 32 nM. The figure for `CC(C)NC(=O)C1Cc2ccc(-c3nccc(Nc4ccc5[nH]ncc5c4)n3)cc2N1` (centres unmarked) [TDI01292, 6-(4-((1H-indazol-5-yl)amino)pyrimidin-2-yl)-N-isopropylindoline-2-carboxamide] is 242 nM. The figure for `CN(C)C(=O)c1cc2ccc(-c3nccc(Nc4ccc(-c5cn[nH]c5)cc4)n3)cc2[nH]1` [TDI01294, 6-(4-((4-(1H-pyrazol-4-yl)phenyl)amino)pyrimidin-2-yl)-N,N-dimethyl-1H-indole-2-carboxamide] is 352 nM; for `CNC(=O)c1cc2ccc(-c3nccc(Nc4ccc(-c5cn[nH]c5)cc4)n3)cc2[nH]1` [TDI01296, 6-(4-((4-(1H-pyrazol-4-yl)phenyl)amino)pyrimidin-2-yl)-N-methyl-1H-indole-2-carboxamide] it is 211 nM; for `CC(C)OC(=O)c1cc2ccc(-c3nccc(Nc4ccc(-c5cn[nH]c5)cc4)n3)cc2[nH]1` [TDI01299, isopropyl 6-(4-((4-(1H-pyrazol-4-yl)phenyl)amino)pyrimidin-2-yl)-1H-indole-2-carboxylate] it is 463 nM.

`O=C(Nc1ccccn1)c1cc2ccc(-c3nccc(Nc4ccc5[nH]ncc5c4)n3)cc2[nH]1` [TDI01311, 6-(4-((1H-indazol-5-yl)amino)pyrimidin-2-yl)-N-(pyridin-2-yl)-1H-indole-2-carboxamide] displayed an IC50 of 465 nM.

For the compound `CC(C)NC(=O)N1Cc2ccc(-c3nccc(Nc4ccc5[nH]ncc5c4)n3)cc2C1` [TDI01312, 5-(4-((1H-indazol-5-yl)amino)pyrimidin-2-yl)-N-isopropylisoindoline-2-carboxamide], the IC50 turned out to be 73 nM. Compound `COc1ccc(NC(=O)c2cc3ccc(-c4nccc(Nc5ccc6[nH]ncc6c5)n4)cc3[nH]2)cn1` [TDI01315, 6-(4-((1H-indazol-5-yl)amino)pyrimidin-2-yl)-N-(6-methoxypyridin-3-yl)-1H-indole-2-carboxamide] gave an IC50 of 126 nM. Under `CN1CCC(n2cc(NC(=O)c3cc4ccc(-c5nccc(Nc6ccc7[nH]ncc7c6)n5)cc4[nH]3)cn2)CC1` [TDI01316, 6-(4-((1H-indazol-5-yl)amino)pyrimidin-2-yl)-N-(1-(1-methylpiperidin-4-yl)-1H-pyrazol-4-yl)-1H-indole-2-carboxamide] stands 87 nM; under `CN1CCC(N2CCC(NC(=O)c3cc4ccc(-c5nccc(Nc6ccc7[nH]ncc7c6)n5)cc4[nH]3)CC2)CC1` [TDI01317, 6-(4-((1H-indazol-5-yl)amino)pyrimidin-2-yl)-N-(1′-methyl-[1,4′-bipiperidin]-4-yl)-1H-indole-2-carboxamide], 112 nM; under `CN1CCC(N2CCCC(NC(=O)c3cc4ccc(-c5nccc(Nc6ccc7[nH]ncc7c6)n5)cc4[nH]3)C2)CC1` (centres unmarked) [TDI01318, 6-(4-((1H-indazol-5-yl)amino)pyrimidin-2-yl)-N-(1′-methyl-[1,4′-bipiperidin]-3-yl)-1H-indole-2-carboxamide], 18 nM. Compound `CN1CCC2(CC1)CCN(C(=O)c1cc3ccc(-c4nccc(Nc5ccc6[nH]ncc6c5)n4)cc3[nH]1)CC2` [TDI01320, (6-(4-((1H-indazol-5-yl)amino)pyrimidin-2-yl)-1H-indol-2-yl)(9-methyl-3,9-diazaspiro[5.5]undecan-3-yl)methanone] displayed an IC50 of 410 nM. Consider `O=C(NC1CC1)c1cc2ccc(-c3nccc(Nc4ccc(-c5cn[nH]c5)cc4)n3)cc2[nH]1` [TDI01324, 6-(4-((4-(1H-pyrazol-4-yl)phenyl)amino)pyrimidin-2-yl)-N-cyclopropyl-1H-indole-2-carboxamide], for which the midpoint of inhibition, the IC50, lay at 101 nM. Under `CC(C)NC(=O)c1ccc2ccc(-c3nccc(Nc4ccc5[nH]ncc5c4)n3)cc2n1` [TDI01327, 7-(4-((1H-indazol-5-yl)amino)pyrimidin-2-yl)-N-isopropylquinoline-2-carboxamide] stands 472 nM. The figure for `O=C(c1cc2ccc(-c3nccc(Nc4ccc(-c5cn[nH]c5)cc4)n3)cc2[nH]1)N1CCC1` [TDI01330, (6-(4-((4-(1H-pyrazol-4-yl)phenyl)amino)pyrimidin-2-yl)-1H-indol-2-yl)(azetidin-1-yl)methanone] is 474 nM.

The values are drawn from US10329282B2, “Rho-associated protein kinase inhibitor, pharmaceutical composition comprising the same, as well as preparation method and use thereof” (Beijing Tide Pharmaceutical Co., Ltd., priority 2017, dated 2019).
